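Method: 48-hour compound exposure of cells in 96-well plates, five concentrations, linear interpolation of endpoints. Here, GI50 denotes the concentration required for 50% inhibition of growth.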 Active and inactive are the calls of the source. Cut-off read from the data, not from the text of the source: active = GI50 up to about 1.1 µM and inactive = higher.
Legend:
Experiment in all cases: DTP human tumour cell line panel, 48 h
SK-MEL-2 = test system: SK-MEL-2
ACHN = test system: ACHN
CCRF-CEM = test system: CCRF-CEM
DMS-114 = test system: DMS-114
UO-31 = test system: UO-31
XF498 = test system: XF498
M19-MEL = test system: M19-MEL
UACC-257 = test system: UACC-257
SR = test system: SR
OVCAR-4 = test system: OVCAR-4
CAKI-1 = test system: CAKI-1
MOLT-4 = test system: MOLT-4
SNB-19 = test system: SNB-19
RXF 393 = test system: RXF 393
SF-295 = test system: SF-295
SK-MEL-28 = test system: SK-MEL-28
IGROV-1 = test system: IGROV-1
NCI-H460 = test system: NCI-H460
M14 = test system: M14
SW-620 = test system: SW-620
A498 = test system: A498
SN12C = test system: SN12C
UACC-62 = test system: UACC-62
LXFL 529 = test system: LXFL 529
HL-60 = test system: HL-60
KM12 = test system: KM12
HCT-15 = test system: HCT-15
SNB-75 = test system: SNB-75
HOP-92 = test system: HOP-92
SF-539 = test system: SF-539
EKVX = test system: EKVX
U-251 = test system: U-251
OVCAR-8 = test system: OVCAR-8
SNB-78 = test system: SNB-78
HT-29 = test system: HT-29
HOP-62 = test system: HOP-62
KM-20L2 = test system: KM-20L2
A549 = test system: A549
HCT-116 = test system: HCT-116
K562 = test system: K562
OVCAR-3 = test system: OVCAR-3
DMS-273 = test system: DMS-273
RPMI-8226 = test system: RPMI-8226
SK-OV-3 = test system: SK-OV-3
RXF 631 = test system: RXF 631
HOP-18 = test system: HOP-18
DLD-1 = test system: DLD-1
HCC 2998 = test system: HCC 2998
COLO 205 = test system: COLO 205
NCI-H23 = test system: NCI-H23
786-0 = test system: 786-0

Q: `COC1(Cc2ccccc2)C(=O)c2ccccc2N1C(C)=O` (stereo unspecified) was tested. Which GI50 (SK-MEL-2) did it give?
A: > 100 µM (inactive)

Q: What about the GI50 (ACHN) of the same compound?
A: > 100 µM (inactive)

Q: What about the GI50 (CCRF-CEM) of the same compound?
A: > 100 µM (inactive)

Q: And the GI50 (DMS-114)?
A: > 100 µM (inactive)

Q: What about the GI50 (UO-31) of the same compound?
A: > 100 µM (inactive)

Q: And the GI50 (XF498)?
A: > 100 µM (inactive)

Q: What about the GI50 (M19-MEL) of the same compound?
A: > 100 µM (inactive)

Q: And the GI50 (UACC-257)?
A: > 100 µM (inactive)

Q: And the GI50 (SR)?
A: > 100 µM (inactive)

Q: What about the GI50 (OVCAR-4) of the same compound?
A: > 100 µM (inactive)

Q: And the GI50 (CAKI-1)?
A: > 100 µM (inactive)

Q: And the GI50 (MOLT-4)?
A: > 100 µM (inactive)

Q: What about the GI50 (SNB-19) of the same compound?
A: > 100 µM (inactive)

Q: And the GI50 (RXF 393)?
A: > 100 µM (inactive)

Q: And the GI50 (SF-295)?
A: > 100 µM (inactive)

Q: What about the GI50 (SK-MEL-28) of the same compound?
A: > 100 µM (inactive)

Q: What about the GI50 (IGROV-1) of the same compound?
A: > 100 µM (inactive)

Q: And the GI50 (NCI-H460)?
A: > 100 µM (inactive)

Q: What about the GI50 (M14) of the same compound?
A: > 100 µM (inactive)

Q: What about the GI50 (SW-620) of the same compound?
A: > 100 µM (inactive)

Q: And the GI50 (A498)?
A: > 100 µM (inactive)

Q: And the GI50 (SN12C)?
A: > 100 µM (inactive)

Q: What about the GI50 (UACC-62) of the same compound?
A: > 100 µM (inactive)

Q: And the GI50 (LXFL 529)?
A: > 100 µM (inactive)

Q: What about the GI50 (HL-60) of the same compound?
A: > 100 µM (inactive)

Q: And the GI50 (KM12)?
A: > 100 µM (inactive)

Q: And the GI50 (HCT-15)?
A: > 100 µM

Q: And the GI50 (SNB-75)?
A: > 100 µM (inactive)

Q: And the GI50 (HOP-92)?
A: > 100 µM (inactive)

Q: And the GI50 (SF-539)?
A: > 100 µM (inactive)

Q: And the GI50 (EKVX)?
A: > 100 µM (inactive)

Q: What about the GI50 (U-251) of the same compound?
A: > 100 µM (inactive)

Q: What about the GI50 (OVCAR-8) of the same compound?
A: > 100 µM (inactive)

Q: What about the GI50 (SNB-78) of the same compound?
A: > 100 µM (inactive)

Q: And the GI50 (HT-29)?
A: > 100 µM (inactive)

Q: And the GI50 (HOP-62)?
A: > 100 µM (inactive)

Q: What about the GI50 (KM-20L2) of the same compound?
A: > 100 µM (inactive)

Q: And the GI50 (A549)?
A: > 100 µM (inactive)

Q: What about the GI50 (HCT-116) of the same compound?
A: > 100 µM (inactive)

Q: What about the GI50 (K562) of the same compound?
A: > 100 µM (inactive)

Q: And the GI50 (OVCAR-3)?
A: > 100 µM (inactive)

Q: And the GI50 (DMS-273)?
A: > 100 µM (inactive)

Q: And the GI50 (RPMI-8226)?
A: > 100 µM (inactive)

Q: What about the GI50 (SK-OV-3) of the same compound?
A: > 100 µM (inactive)

Q: And the GI50 (RXF 631)?
A: > 100 µM (inactive)

Q: What about the GI50 (HOP-18) of the same compound?
A: > 100 µM (inactive)

Q: What about the GI50 (DLD-1) of the same compound?
A: > 100 µM (inactive)

Q: And the GI50 (HCC 2998)?
A: > 100 µM (inactive)

Q: What about the GI50 (COLO 205) of the same compound?
A: > 100 µM (inactive)

Q: What about the GI50 (NCI-H23) of the same compound?
A: > 100 µM (inactive)

Q: And the GI50 (786-0)?
A: > 100 µM (inactive)

— ChEMBL document CHEMBL1201862, “PubChem BioAssay data set” (2004)
